Reference: the NIST ThermoML archive (doi:10.1016/j.fluid.2017.10.027)
± gives the expanded uncertainty stated by the source.

Conditions: Liquid; for mass density: Vibrating tube method

CCCCOCCO [2-butoxyethan-1-ol]
mass density [kg/m3]
Conditions | 100 kPa | 101.33 kPa | 2500 kPa | 5000 kPa | 10000 kPa | 15000 kPa | 20000 kPa | 25000 kPa | 30000 kPa
293.15 K | 900 ± 2 | – | 902 ± 2 | 903 ± 2 | 907 ± 2 | 910 ± 2 | 913 ± 2 | 916 ± 2 | 919 ± 2
298.15 K | – | 896.17 ± 0.23 | – | – | – | – | – | – | –
303.15 K | 892 ± 2 | – | 893 ± 2 | 895 ± 2 | 899 ± 2 | 902 ± 2 | 905 ± 2 | 909 ± 2 | 912 ± 2
313.15 K | 883 ± 2 | – | 885 ± 2 | 887 ± 2 | 889 ± 2 | 894 ± 2 | 898 ± 2 | 901 ± 2 | 904 ± 2
323.15 K | 873 ± 2 | – | 875 ± 2 | 877 ± 2 | 879 ± 2 | 886 ± 2 | 890 ± 2 | 893 ± 2 | 896 ± 2
333.15 K | 866 ± 2 | – | 868 ± 2 | 870 ± 2 | 874 ± 2 | 878 ± 2 | 882 ± 2 | 885 ± 2 | 889 ± 2
343.15 K | 857 ± 2 | – | 860 ± 2 | 862 ± 2 | 866 ± 2 | 870 ± 2 | 874 ± 2 | 877 ± 2 | 881 ± 2
353.15 K | 849 ± 2 | – | 851 ± 2 | 853 ± 2 | 857 ± 2 | 862 ± 2 | 866 ± 2 | 869 ± 2 | 873 ± 2
363.15 K | 839 ± 2 | – | 842 ± 2 | 844 ± 2 | 849 ± 2 | 853 ± 2 | 857 ± 2 | 861 ± 2 | 865 ± 2
373.15 K | 830 ± 2 | – | 833 ± 2 | 835 ± 2 | 840 ± 2 | 845 ± 2 | 849 ± 2 | 853 ± 2 | 857 ± 2
383.15 K | 821 ± 2 | – | 823 ± 2 | 826 ± 2 | 831 ± 2 | 836 ± 2 | 841 ± 2 | 845 ± 2 | 849 ± 2
393.15 K | 811 ± 2 | – | 814 ± 2 | 817 ± 2 | 822 ± 2 | 827 ± 2 | 832 ± 2 | 837 ± 2 | 841 ± 2
403.15 K | 801 ± 2 | – | 804 ± 2 | 807 ± 2 | 813 ± 2 | 819 ± 2 | 824 ± 2 | 829 ± 2 | 833 ± 2
413.15 K | 790 ± 2 | – | 794 ± 2 | 797 ± 2 | 804 ± 2 | 810 ± 2 | 815 ± 2 | 821 ± 2 | 825 ± 2

Conditions | speed of sound [m/s]
298.15 K, 101.33 kPa, Sing-around technique in a fixed-path interferometer | 1304.7 ± 3.2
